Data: patent US12624018B1, “Inhibitors of RIPK2 and medical uses thereof” (Odyssey Therapeutics, Inc., priority 2022, dated 2026)

target: T1, RIPK2 enzyme (Homo sapiens, UniProt O43353); assay: RIPK2 inhibition (ADP-Glo Kinase Assay); type: biochemical; settings: RIPK2 5 nM, ATP 150 μM, MBP substrate, read-out: RIPK2 IC50
T1 construct: purchased Carna 09-128
In short: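 Human RIPK2 (5 nM) preincubated with compound 30 min at room temperature in 50 mM HEPES pH 7.5, 10 mM MgCl2, 2 mM DTT, 1 mM EGTA, 0.01% Brij-35, 0.05% BSA; native swine MBP as substrate. ADP formed quantified by ADP-Glo luminescence; percent inhibition relative to DMSO and no-enzyme controls.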

T1 sequence (O43353 1-299 limits assumed): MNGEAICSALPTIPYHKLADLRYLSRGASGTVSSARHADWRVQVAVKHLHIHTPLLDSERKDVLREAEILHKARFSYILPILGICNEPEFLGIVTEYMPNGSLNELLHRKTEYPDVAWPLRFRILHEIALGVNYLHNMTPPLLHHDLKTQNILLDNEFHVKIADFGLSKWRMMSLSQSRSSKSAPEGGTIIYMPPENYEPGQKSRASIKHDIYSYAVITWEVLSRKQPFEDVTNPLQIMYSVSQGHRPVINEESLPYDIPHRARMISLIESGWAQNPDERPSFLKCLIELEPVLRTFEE

SMILES	IC50
CC(C)(C)n1cc(NC(=O)Cc2ccc(Oc3ccnc4ccc(S(=O)(=O)C5COC5)cc34)cc2F)cn1 [Compound 132, N-(1-(tert-butyl)-1H-pyrazol-4-yl)-2-(2-fluoro-4-((6-(oxetan-3-ylsulfonyl)quinolin-4-yl)oxy)phenyl)acetamide]	< 2.5 nM
CC(C)(C)c1cc(NC(=O)Cc2ncc(Oc3ccnc4ccc(OC5CCNCC5)cc34)cc2F)n[nH]1 [Compound 135, N-(5-(tert-butyl)-1H-pyrazol-3-yl)-2-(3-fluoro-5-((6-(piperidin-4-yloxy)quinolin-4-yl)oxy)pyridin-2-yl)acetamide]	< 2.5 nM
CN1CCC(Oc2ccc3nccc(Oc4ccc(CC(=O)Nc5cc(C(C)(C)C)[nH]n5)c(F)c4)c3c2)CC1 [Compound 136, N-(5-(tert-butyl)-1H-pyrazol-3-yl)-2-(2-fluoro-4-((6-((1-methyl-piperidin-4-yl)oxy)quinolin-4-yl)oxy)phenyl) acetamide]	< 2.5 nM
COC(C)(C)c1ccc2nccc(Oc3cnc(CC(=O)Nc4cnn(C(C)(C)C)c4)c(F)c3)c2c1 [Compound 138, N-(1-(tert-butyl)-1H-pyrazol-4-yl)-2-(3-fluoro-5-((6-(2-methoxypropan-2-yl)quinolin-4-yl)oxy)pyridin-2-yl)acetamide]	5.2 nM
CN1CCC(Cc2ccc3nccc(Oc4cnc(CC(=O)Nc5cnn(C(C)(C)C)c5)c(F)c4)c3c2)CC1 [Compound 139, N-(1-(tert-butyl)-1H-pyrazol-4-yl)-2-(3-fluoro-5-((6-((1-methylpiperidin-4-yl)methyl)quinolin-4-yl)oxy)pyridin-2-yl)acetamide]	3.2 nM
[2H]C([2H])([2H])n1nc(NC(=O)Cc2ccc(Oc3ccnc4ccc(S(C)(=O)=O)cc34)cc2F)cc1C(C)(C)C [Compound 142, N-(5-(tert-butyl)-1-(methyl-d3)-1H-pyrazol-3-yl)-2-(2-fluoro-4-((6-(methylsulfonyl)quinolin-4-yl)oxy)phenyl)acetamide]	< 2.5 nM
CC(C)c1cc(NC(=O)Cc2ccc(Oc3ccnc4ccc(S(C)(=O)=O)cc34)cc2F)n[nH]1 [Compound 143, 2-(2-fluoro-4-((6-(methylsulfonyl)quinolin-4-yl)oxy)phenyl)-N-(5-isopropyl-1H-pyrazol-3-yl)acetamide]	< 2.5 nM
CC(C)c1cc(NC(=O)Cc2ccc(Oc3ccnc4ccc(S(C)(=O)=O)cc34)cc2F)nn1C [Compound 144, 2-(2-fluoro-4-((6-(methylsulfonyl)quinolin-4-yl)oxy)phenyl)-N-(5-isopropyl-1-methyl-1H-pyrazol-3-yl)acetamide]	< 2.5 nM
CCn1nc(NC(=O)Cc2ccc(Oc3ccnc4ccc(S(C)(=O)=O)cc34)cc2F)cc1C(C)(C)C [Compound 147, N-(5-(tert-butyl)-1-ethyl-1H-pyrazol-3-yl)-2-(2-fluoro-4-((6-(methylsulfonyl)quinolin-4-yl)oxy)phenyl)acetamide]	< 2.5 nM
CCn1nc(NC(=O)Cc2ccc(Oc3ccnc4ccc(S(C)(=O)=O)cc34)cc2F)cc1C(C)C [Compound 148, N-(1-ethyl-5-isopropyl-1H-pyrazol-3-yl)-2-(2-fluoro-4-((6-(methylsulfonyl)quinolin-4-yl)oxy)phenyl)acetamide]	< 2.5 nM
Cc1cc(CC(=O)Nc2cnn(C(C)(C)C)c2)ccc1Oc1ccnc2ccc(S(=O)(=O)C3CN(C)C3)cc12 [Compound 149, N-(1-(tert-butyl)-1H-pyrazol-4-yl)-2-(3-methyl-4-((6-((1-methylazetidin-3-yl)sulfonyl)quinolin-4-yl)oxy)phenyl)acetamide]	< 2.5 nM
CC(=O)N1CCC(Oc2ccc3nccc(Oc4cnc(CC(=O)Nc5cnn(C(C)(C)C)c5)c(F)c4)c3c2)CC1 [Compound 150, 2-(5-((6-((1-acetylpiperidin-4-yl)oxy)quinolin-4-yl)oxy)-3-fluoropyridin-2-yl)-N-(1-(tert-butyl)-1H-pyrazol-4-yl)acetamide]	4.1 nM
CC(=O)N1CCC(Oc2ccc3nccc(Oc4ccc(CC(=O)Nc5cnn(C(C)(C)C)c5)c(F)c4)c3c2)CC1 [Compound 151, 2-(4-((6-((1-acetyl-piperidin-4-yl)oxy)quinolin-4-yl)oxy)-2-fluoro-phenyl)-N-(1-(tert-butyl)-1H-pyrazol-4-yl)acetamide]	< 2.5 nM
CC(C)(C)n1cc(NC(=O)Cc2ccc(Oc3ccnc4ccc(N5CCCCC5=O)cc34)cc2F)cn1 [Compound 153, N-(1-(tert-butyl)-1H-pyrazol-4-yl)-2-(2-fluoro-4-((6-(2-oxopiperidin-1-yl)quinolin-4-yl)oxy)phenyl) acetamide]	2.7 nM
CC(C)(C)n1cc(NC(=O)Cc2ccc(Oc3ccnc4ccc(N5CCOCC5=O)cc34)cc2F)cn1 [Compound 154, N-(1-(tert-butyl)-1H-pyrazol-4-yl)-2-(2-fluoro-4-((6-(3-oxomorpholino)quinolin-4-yl)oxy)phenyl) acetamide]	< 2.5 nM
CC(C)(C)n1cc(NC(=O)Cc2ccc(Oc3ccnc4ccc(N5CCNCC5=O)cc34)cc2F)cn1 [Compound 155, N-(1-(tert-butyl)-1H-pyrazol-4-yl)-2-(2-fluoro-4-((6-(2-oxopiperazin-1-yl)quinolin-4-yl)oxy)phenyl) acetamide]	2.5 nM
CN1CCN(c2ccc3nccc(Oc4ccc(CC(=O)Nc5cnn(C(C)(C)C)c5)c(F)c4)c3c2)C(=O)C1 [Compound 156, N-(1-(tert-butyl)-1H-pyrazol-4-yl)-2-(2-fluoro-4-((6-(4-methyl-2-oxopiperazin-1-yl)quinolin-4-yl)oxy)phenyl) acetamide]	4.5 nM
CC(C)(C)n1cc(NC(=O)Cc2ccc(Oc3ncnc4ccc(OC5CCNCC5)cc34)c(Cl)c2)cn1 [Compound 158, N-(1-(tert-butyl)-1H-pyrazol-4-yl)-2-(3-chloro-4-((6-(piperidin-4-yloxy)quinazolin-4-yl)oxy)phenyl) acetamide]	< 2.5 nM
CC(C)(C)n1cc(NC(=O)Cc2ccc(Oc3ccnc4ccc(OC5CCNCC5)cc34)c(F)c2)cn1 [Compound 161, N-(1-(tert-butyl)-1H-pyrazol-4-yl)-2-(3-fluoro-4-((6-(piperidin-4-yloxy)quinolin-4-yl)oxy)phenyl) acetamide]	< 2.5 nM
CC(C)(C)n1cc(NC(=O)Cc2ccc(Oc3ccnc4ccc(S(C)(=O)=O)cc34)c(F)c2)cn1 [Compound 163, N-(1-(tert-butyl)-1H-pyrazol-4-yl)-2-(3-fluoro-4-((6-(methylsulfonyl)quinolin-4-yl)oxy)phenyl)acetamide]	< 2.5 nM
CCS(=O)(=O)c1ccc2nccc(Oc3ccc(CC(=O)Nc4cnn(C(C)(C)C)c4)cc3F)c2c1 [Compound 164, N-(1-(tert-butyl)-1H-pyrazol-4-yl)-2-(4-((6-(ethylsulfonyl)quinolin-4-yl)oxy)-3-fluorophenyl)acetamide]	< 2.5 nM

The next lines start with the values.

IC50	SMILES
10.9 nM	CC(C)(C)n1cc(NC(=O)Cc2ccc(Oc3ncnc4ccc(OC5CCOCC5)cc34)cc2F)cn1 [Compound 133, N-(1-(tert-butyl)-1H-pyrazol-4-yl)-2-(2-fluoro-4-((6-((tetrahydro-2H-pyran-4-yl)oxy)quinazolin-4-yl)oxy)phenyl) acetamide]
< 2.5 nM	CN1CCC(Oc2ccc3nccc(Oc4cnc(CC(=O)Nc5cc(C(C)(C)C)[nH]n5)c(F)c4)c3c2)CC1 [Compound 134, N-(5-(tert-butyl)-1H-pyrazol-3-yl)-2-(3-fluoro-5-((6-((1-methylpiperidin-4-yl)oxy)quinolin-4-yl)oxy)pyridin-2-yl)acetamide]
< 2.5 nM	CC(C)(C)c1cc(NC(=O)Cc2ccc(Oc3ccnc4ccc(OC5CCNCC5)cc34)cc2F)n[nH]1 [Compound 137, N-(5-(tert-butyl)-1H-pyrazol-3-yl)-2-(2-fluoro-4-((6-(piperidin-4-yloxy)quinolin-4-yl)oxy)phenyl) acetamide]
3.1 nM	CS(=O)(=O)c1ccc2nccc(Oc3ccc(CC(=O)Nc4cc(C5CC5)[nH]n4)c(F)c3)c2c1 [Compound 145, N-(5-cyclopropyl-1H-pyrazol-3-yl)-2-(2-fluoro-4-((6-(methylsulfonyl)quinolin-4-yl)oxy)phenyl)acetamide]
< 2.5 nM	Cn1nc(NC(=O)Cc2ccc(Oc3ccnc4ccc(S(C)(=O)=O)cc34)cc2F)cc1C1CC1 [Compound 146, N-(5-cyclopropyl-1-methyl-1H-pyrazol-3-yl)-2-(2-fluoro-4-((6-(methylsulfonyl)quinolin-4-yl)oxy)phenyl)acetamide]
< 2.5 nM	CC(C)(C)n1cc(NC(=O)Cc2ccc(Oc3ccnc4ccc(N5CCCC5=O)cc34)cc2F)cn1 [Compound 152, N-(1-(tert-butyl)-1H-pyrazol-4-yl)-2-(2-fluoro-4-((6-(2-oxopyrrolidin-1-yl)quinolin-4-yl)oxy)phenyl) acetamide]
5.2 nM	CC(C)(C)n1cc(NC(=O)Cc2ccc(Oc3ccnc4ccc(-n5ccccc5=O)cc34)cc2F)cn1 [Compound 157, N-(1-(tert-butyl)-1H-pyrazol-4-yl)-2-(2-fluoro-4-((6-(2-oxopyridin-1(2H)-yl)quinolin-4-yl)oxy)phenyl) acetamide]
< 2.5 nM	CN1CCC(Oc2ccc3ncnc(Oc4ccc(CC(=O)Nc5cnn(C(C)(C)C)c5)cc4Cl)c3c2)CC1 [Compound 159, N-(1-(tert-butyl)-1H-pyrazol-4-yl)-2-(3-chloro-4-((6-((1-methyl-piperidin-4-yl)oxy)quinazolin-4-yl)oxy)phenyl) acetamide]
< 2.5 nM	CCN1CCC(Oc2ccc3ncnc(Oc4ccc(CC(=O)Nc5cnn(C(C)(C)C)c5)cc4Cl)c3c2)CC1 [Compound 160, N-(1-(tert-butyl)-1H-pyrazol-4-yl)-2-(3-chloro-4-((6-((1-ethyl-piperidin-4-yl)oxy)quinazolin-4-yl)oxy)phenyl) acetamide]
< 2.5 nM	CN1CCC(Oc2ccc3nccc(Oc4ccc(CC(=O)Nc5cnn(C(C)(C)C)c5)cc4F)c3c2)CC1 [Compound 162, N-(1-(tert-butyl)-1H-pyrazol-4-yl)-2-(3-fluoro-4-((6-((1-methyl-piperidin-4-yl)oxy)quinolin-4-yl)oxy)phenyl) acetamide]
